These results are taken from PMC3070202 (Biochemistry, 2010).

A word on the Kd: it is the equilibrium constant for the complex coming apart. A higher Kd goes with weaker binding.

For test [1], the target named is T1, human pancreas-specific protein disulfide isomerase (PDIp) (Homo sapiens, UniProt Q13087, Q265L).
T1 sequence (Q13087 153-366 Q265L limits assumed): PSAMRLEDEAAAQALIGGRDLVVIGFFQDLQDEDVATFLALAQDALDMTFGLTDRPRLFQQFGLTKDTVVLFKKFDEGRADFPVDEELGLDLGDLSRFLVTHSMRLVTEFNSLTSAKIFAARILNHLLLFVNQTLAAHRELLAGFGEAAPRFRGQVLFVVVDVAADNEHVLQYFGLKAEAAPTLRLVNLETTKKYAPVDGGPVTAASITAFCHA
As to the kind of experiment: [3H]E2 saturation radioligand binding.

In test [2] the target is T2, human pancreas-specific protein disulfide isomerase (PDIp) (Homo sapiens, UniProt Q13087).
T2 sequence (Q13087 22-525): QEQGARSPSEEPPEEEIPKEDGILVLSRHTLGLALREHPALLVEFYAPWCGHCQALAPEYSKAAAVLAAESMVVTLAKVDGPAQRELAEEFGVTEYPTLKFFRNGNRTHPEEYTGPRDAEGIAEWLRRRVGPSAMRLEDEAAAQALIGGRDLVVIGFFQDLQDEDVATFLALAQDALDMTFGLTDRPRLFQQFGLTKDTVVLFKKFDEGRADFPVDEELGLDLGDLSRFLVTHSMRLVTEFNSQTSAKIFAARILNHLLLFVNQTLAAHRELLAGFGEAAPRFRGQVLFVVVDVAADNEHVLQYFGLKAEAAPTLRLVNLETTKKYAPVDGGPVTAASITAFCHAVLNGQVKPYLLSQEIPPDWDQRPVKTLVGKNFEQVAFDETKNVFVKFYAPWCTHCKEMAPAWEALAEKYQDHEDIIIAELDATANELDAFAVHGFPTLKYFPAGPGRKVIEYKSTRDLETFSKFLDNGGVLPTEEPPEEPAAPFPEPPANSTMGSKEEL
As to the kind of experiment: [3H]E2 saturation radioligand binding with Scatchard plot.

The target in test [3] is T2, human pancreas-specific protein disulfide isomerase (PDIp). As to the kind of experiment: competition with [3H]E2 radioligand binding at […].

Consider `C[C@]12CC[C@@H]3c4ccc(O)cc4CC[C@H]3[C@@H]1CC[C@@H]2O` [E2, Estradiol], for which the Kd in test [1] is 185 ± 8 nM; in test [2] it was roughly 170 nM.
For `C[C@]12CC[C@@H]3c4ccc(O)cc4CC[C@H]3[C@@H]1C[C@@H](O)[C@@H]2O` [E3], in test [3], the “competition with [3H]E2 radioligand binding at 10 μM” value was “could efficiently compete with [^3H]E2 for binding to the b-b′ fragment or the full-length PDIp”.
